Columns and labels:
IGROV-1 = test: Inhibition of cells growth by colorimetric (SRB) assay, IGROV-1; settings: for GI50 / CC50: Homo sapiens, IGROV-1, 48 h; for GI50: read-out: GI50 IGROV, SRB assay, 48 hours exposure; for CC50: read-out: LC50 IGROV, SRB assay, 48 hours exposure; for TGI IGROV: SRB assay, 48 hours exposure
Outline: (§1)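 Human tumour cells seeded at 5×10^3/well in RPMI 1640 10% FBS, attached 18 h, then exposed 48 h to samples at 10 to 10^−8 μg/ml in DMSO/EtOH/PBS (0.5:0.5:99). Growth read by SRB staining after TCA fixation, OD 490 nm, triplicate wells; GI, TGI and LC derived.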

SK-OV-3 = test: Inhibition of cells growth by colorimetric (SRB) assay, SK-OV-3; settings: for GI50 / CC50: Homo sapiens, SK-OV-3, 48 h; for GI50: read-out: GI50 SKOV-3, SRB assay, 48 hours exposure; for CC50: read-out: LC50 SKOV-3, SRB assay, 48 hours exposure; for TGI SKOV-3: SRB assay, 48 hours exposure
Outline: as §1

PANC-1 = test: Inhibition of cells growth by colorimetric (SRB) assay, PANC-1; settings: for GI50 / CC50: Homo sapiens, PANC-1, 48 h; for GI50: read-out: GI50 PANC-1, SRB assay, 48 hours exposure; for CC50: read-out: LC50 PANC-1, SRB assay, 48 hours exposure; for TGI PANC-1: SRB assay, 48 hours exposure
Outline: as §1

IGROV-ET = test: Inhibition of cells growth by colorimetric (SRB) assay, IGROV-ET; settings: for GI50 / CC50: Homo sapiens, 48 h; for GI50: read-out: GI50 IGROV-ET, SRB assay, 48 hours exposure; for CC50: read-out: LC50 IGROV-ET, SRB assay, 48 hours exposure; for TGI IGROV-ET: SRB assay, 48 hours exposure
Outline: as §1

HMEC1 = test: Inhibition of cells growth by colorimetric (SRB) assay, HMEC1; settings: for GI50: Homo sapiens, HMEC-1, 48 h, read-out: GI50 H-MEC-1, SRB assay, 48 hours exposure; for TGI H-MEC-1: SRB assay, 48 hours exposure, in M (unit assumed)
[1] = as above; settings: human, HMEC1 cells, LC50 H-MEC-1, SRB assay, 48 hours exposure
HT-29 = test: Inhibition of cells growth by colorimetric (SRB) assay, HT-29; settings: for GI50 / CC50: Homo sapiens, HT-29, 48 h; for GI50: read-out: GI50 HT-29, SRB assay, 48 hours exposure; for CC50: read-out: LC50 HT-29, SRB assay, 48 hours exposure; for TGI HT-29: SRB assay, 48 hours exposure
Outline: as §1

K-562 = test: Inhibition of cells growth by colorimetric (SRB) assay, K-562; settings: for GI50 / CC50: Homo sapiens, K562, 48 h; for GI50: read-out: GI50 K-562, SRB assay, 48 hours exposure; for CC50: read-out: LC50 K-562, SRB assay, 48 hours exposure; for TGI K-562: SRB assay, 48 hours exposure
Outline: as §1

LoVo = test: Inhibition of cells growth by colorimetric (SRB) assay, LoVo; settings: for GI50 / CC50: Homo sapiens, LoVo, 48 h; for GI50: read-out: GI50 LOVO, SRB assay, 48 hours exposure; for CC50: read-out: LC50 LOVO, SRB assay, 48 hours exposure; for TGI LOVO: SRB assay, 48 hours exposure
Outline: as §1

LNCaP = test: Inhibition of cells growth by colorimetric (SRB) assay, LNCaP; settings: for GI50 / CC50: Homo sapiens, LNCaP, 48 h; for GI50: read-out: GI50 LN-caP, SRB assay, 48 hours exposure; for CC50: read-out: LC50 LN-caP, SRB assay, 48 hours exposure; for TGI LN-caP: SRB assay, 48 hours exposure
Outline: as §1

A-549 = test: Inhibition of cells growth by colorimetric (SRB) assay, A-549; settings: for GI50 / CC50: Homo sapiens, A549, 48 h; for GI50: read-out: GI50 A-549, SRB assay, 48 hours exposure; for CC50: read-out: LC50 A-549, SRB assay, 48 hours exposure; for TGI A-549: SRB assay, 48 hours exposure
Outline: as §1

DU-145 = test: Inhibition of cells growth by colorimetric (SRB) assay, DU-145; settings: for GI50 / CC50: Homo sapiens, DU-145, 48 h; for GI50: read-out: GI50 DU-145, SRB assay, 48 hours exposure; for CC50: read-out: LC50 DU-145, SRB assay, 48 hours exposure; for TGI DU-145: SRB assay, 48 hours exposure
Outline: as §1

SK-MEL-28 = test: Inhibition of cells growth by colorimetric (SRB) assay, SK-MEL-28; settings: for GI50 / CC50: Homo sapiens, SK-MEL-28, 48 h; for GI50: read-out: GI50 MEL-28, SRB assay, 48 hours exposure; for CC50: read-out: LC50 MEL-28, SRB assay, 48 hours exposure; for TGI MEL-28: SRB assay, 48 hours exposure
Outline: as §1

LoVo-Dox = test: Inhibition of cells growth by colorimetric (SRB) assay, LoVo-Dox; settings: for GI50 / CC50: Homo sapiens, 48 h; for GI50: read-out: GI50 LOVO-DOX, SRB assay, 48 hours exposure; for CC50: read-out: LC50 LOVO-DOX, SRB assay, 48 hours exposure; for TGI LOVO-DOX: SRB assay, 48 hours exposure
Outline: as §1

SK-BR-3 = test: Inhibition of cells growth by colorimetric (SRB) assay, SK-BR-3; settings: for GI50 / CC50: Homo sapiens, SK-BR-3, 48 h; for GI50: read-out: GI50 SK-BR-3, SRB assay, 48 hours exposure; for CC50: read-out: LC50 SK-BR-3, SRB assay, 48 hours exposure; for TGI SK-BR-3: SRB assay, 48 hours exposure
Outline: as §1

COc1ccc2nc3c(cc2c1)c(-c1ccnc(SC)n1)c1ccnc(N)n13 [Compound 18b]
GI50 (IGROV-1): 20.8 µM
CC50 (IGROV-1): ≥ 25.7 µM
TGI IGROV (IGROV-1): 2.57E−05
GI50 (SK-OV-3): ≥ 25.7 µM
CC50 (SK-OV-3): ≥ 25.7 µM
TGI SKOV-3 (SK-OV-3): 2.57E−05
GI50 (PANC-1): 10.3 µM
CC50 (PANC-1): ≥ 25.7 µM
TGI PANC-1 (PANC-1): 2.57E−05
GI50 (IGROV-ET): ≥ 25.7 µM
CC50 (IGROV-ET): ≥ 25.7 µM
TGI IGROV-ET (IGROV-ET): 2.57E−05
GI50 (HMEC1): 12.2 µM
TGI H-MEC-1 (HMEC1): 1.69E−05
CC50 at 48 h [1]: 23.3 µM
GI50 (HT-29): ≥ 25.7 µM
CC50 (HT-29): ≥ 25.7 µM
TGI HT-29 (HT-29): 2.57E−05
GI50 (K-562): ≥ 25.7 µM
CC50 (K-562): ≥ 25.7 µM
TGI K-562 (K-562): 2.57E−05
GI50 (LoVo): ≥ 25.7 µM
CC50 (LoVo): ≥ 25.7 µM
TGI LOVO (LoVo): 2.57E−05
GI50 (LNCaP): 16.6 µM
CC50 (LNCaP): ≥ 25.7 µM
TGI LN-caP (LNCaP): 2.57E−05
GI50 (A-549): ≥ 25.7 µM
CC50 (A-549): ≥ 25.7 µM
TGI A-549 (A-549): 2.57E−05
GI50 (DU-145): ≥ 25.7 µM
CC50 (DU-145): ≥ 25.7 µM
TGI DU-145 (DU-145): 2.57E−05
GI50 (SK-MEL-28): ≥ 25.7 µM
CC50 (SK-MEL-28): ≥ 25.7 µM
TGI MEL-28 (SK-MEL-28): 2.57E−05
GI50 (LoVo-Dox): ≥ 25.7 µM
CC50 (LoVo-Dox): ≥ 25.7 µM
TGI LOVO-DOX (LoVo-Dox): 2.57E−05
GI50 (SK-BR-3): ≥ 25.7 µM
CC50 (SK-BR-3): ≥ 25.7 µM
TGI SK-BR-3 (SK-BR-3): 2.57E−05

Nc1nccc(-c2c3cc(Cl)cnc3n3c(N)nccc23)n1 [Compound 49]
GI50 (IGROV-1): 4.68 µM
CC50 (IGROV-1): 29.3 µM
TGI IGROV (IGROV-1): 1.17E−05
GI50 (SK-OV-3): 5.42 µM
CC50 (SK-OV-3): 32.1 µM
TGI SKOV-3 (SK-OV-3): 1.50E−05
GI50 (PANC-1): 10.7 µM
CC50 (PANC-1): 32.1 µM
TGI PANC-1 (PANC-1): 3.21E−05
GI50 (IGROV-ET): 4.23 µM
CC50 (IGROV-ET): 32.1 µM
TGI IGROV-ET (IGROV-ET): 1.20E−05
GI50 (HMEC1): 0.456 µM
TGI H-MEC-1 (HMEC1): 4.59E−06
CC50 at 48 h [1]: 8.73 µM
GI50 (HT-29): 12 µM
CC50 (HT-29): 32.1 µM
TGI HT-29 (HT-29): 3.21E−05
GI50 (K-562): 13.9 µM
CC50 (K-562): 32.1 µM
TGI K-562 (K-562): 2.77E−05
GI50 (LoVo): 2.37 µM
CC50 (LoVo): 32.1 µM
TGI LOVO (LoVo): 1.16E−05
GI50 (LNCaP): 1.26 µM
CC50 (LNCaP): 19.5 µM
TGI LN-caP (LNCaP): 4.30E−06
GI50 (A-549): 2.11 µM
CC50 (A-549): 32.1 µM
TGI A-549 (A-549): 9.21E−06
GI50 (DU-145): 5.33 µM
CC50 (DU-145): 32.1 µM
TGI DU-145 (DU-145): 1.38E−05
GI50 (SK-MEL-28): 6.35 µM
CC50 (SK-MEL-28): 32.1 µM
TGI MEL-28 (SK-MEL-28): 1.43E−05
GI50 (LoVo-Dox): 2.11 µM
CC50 (LoVo-Dox): 27.6 µM
TGI LOVO-DOX (LoVo-Dox): 7.86E−06
GI50 (SK-BR-3): 7.19 µM
CC50 (SK-BR-3): 32.1 µM
TGI SK-BR-3 (SK-BR-3): 1.86E−05
